The values that follow come from US20100280010A1, “CHEMICAL COMPOUNDS” (priority 2006, published 2010).

The subject of this assay is HIV-1 (Ba-L or IIIB) infection of HOS cell line (expressing hCXCR4/hCCR5/hCD4/pHIV-LTR-luciferase). The experiment in a line: HOS HIV-1 Infectivity Assay. The class given is cell-based. Particulars: Human immunodeficiency virus 1, HOS, virus strain not given, read-out: Activity Level. Here is the method: Compounds were profiled against two HIV-1 viruses, the M-tropic (CCR5 utilizing) Ba-L strain and the T-tropic (CXCR4 utilizing) IIIB strain. Ba-L was propagated in either peripheral blood lymphocytes or SupT1/CCR5+/CXCR4+ cells. IIIB was propagated in peripheral blood lymphocytes. Compounds were tested for their ability to block infection of the HOS cell line (expressing hCXCR4/hCCR5/hCD4/pHIV-LTR-luciferase) by either HIV-1 Ba-L or HIV-1 IIIB. Compound cytotoxicity was also examined in the absence of virus addition.
HOS cells (expressing hCXCR4/hCCR5/hCD4/pHIV-LTR-luciferase) were harvested and diluted in Dulbeccos modified Eagles media supplemented with 2% FCS to a concentration of 120,000 cells/ml. The cells were plated into 96-well plates (50 μl per well) and the plates were placed in a tissue culture incubator ([…]; 5% CO2195% air) for a period of 24 h.
Subsequently, 50 μl of the desired drug solution (2 times the final concentration) was added to each well and the plates were returned to the tissue culture incubator (370° C.; 5% CO2/95% air) for 1 h. Following this incubation, 60 μl of diluted virus (4 times the final concentration) was added to 60 μl of 2× the final desired concentration of the compound and 100 μl of this compound/virus mix was added to each well (approximately 2 million RLU per well of virus). The plates were returned to the tissue culture incubator (370° C.; 5% CO2/95% air) and were incubated for a further 96 h.
Following this incubation the endpoint for the virally infected cultures was quantified following addition of Steady-Glo Luciferase assay system reagent (Promega, Madison, Wis.). Cell viability or non-infected cultures was measured using a CellTiter-Glo luminescent cell viability assay system (Promega, Madison, Wis.). All luminescent readouts are performed on a Topcount luminescence detector (Packard, Meridien, Conn.).

SMILES strings stand for the structures. pIC50: −log10 of the molar value.

In the case of `C[C@H]1CN(c2cccc3nc(CN(C)[C@H]4CCCc5cccnc54)c(Cl)n23)CCN1` [Example 78, (8S)—N-({3-Chloro-5-[(3S)-3-methyl-1-piperazinyl]imidazo[1,2-a]pyridin-2-yl}methyl)-N-methyl-5,6,7,8-tetrahydro-8-quinolinamine], the pIC50 was above 7.00.
As for `CN(C)[C@@H]1CCN(c2cccc3nc(CN(Cc4ccccc4)[C@H]4CCCc5cccnc54)c(C#N)n23)C1` [Example 53, 5-[(3R)-3-(Dimethylamino)-1-pyrrolidinyl]-2-({(phenylmethyl)[(8S)-5,6,7,8-tetrahydro-8-quinolinyl]amino}methyl)imidazo[1,2-a]pyridine-3-carbonitrile], the pIC50 was above 7.00.
Take `CCCN(Cc1nc2cccc(N(C)CCN(C)C)n2c1Cl)[C@H]1CCCc2cccnc21` [Example 89, N-[3-Chloro-2-({propyl[(8S)-5,6,7,8-tetrahydro-8-Quinolinyl]amino}methyl)imidazo[1,2-a]pyridin-5-yl]-N,N′,N′-trimethyl-1,2-ethanediamine]: the pIC50 is above 7.00.
The result for `CCCN(Cc1nc2cccc(N3CCCN(C)CC3)n2c1Cl)[C@H]1CCCc2cccnc21` [Example 84, (8S)—N-{[3-Chloro-5-(4-methylhexahydro-1H-1,4-diazepin-1-yl)imidazo[1,2-a]pyridin-2-yl]methyl}-N-propyl-5,6,7,8-tetrahydro-8-quinolinamine] reads above 7.00.
As to `CN(C)[C@@H]1CCN(c2cccc3nc(CN(C)[C@H]4CCCc5cccnc54)c(C#N)n23)C1` [Example 38, 5-[(3R)-3-(Dimethylamino)-1-pyrrolidinyl]-2-({methyl[(8S)-5,6,7,8-tetrahydro-8-quinolinyl]amino}methyl)imidazo[1,2-a]pyridine-3-carbonitrile], the pIC50 is above 7.00.
Consider `CN(Cc1nc2cccc(N3CCN4CCC[C@H]4C3)n2c1Cl)[C@H]1CCCc2cccnc21` [Example 81, (8S)—N-({3-Chloro-5-[(8aS)-hexahydropyrrolo[1,2-a]pyrazin-2(1H)-yl]imidazo[1,2-a]pyridin-2-yl}methyl)-N-methyl-5,6,7,8-tetrahydro-8-quinolinamine], for which the pIC50 was above 7.00.
As to `CN1CCCN(c2cccc3nc(CN(C)[C@H]4CCCc5cccnc54)c(Cl)n23)CC1` [Example 76, (8S)—N-{[3-Chloro-5-(4-methylhexahydro-1H-1,4-diazepin-1-yl)imidazo[1,2-a]pyridin-2-yl]methyl}-N-methyl-5,6,7,8-tetrahydro-8-quinolinamine], the pIC50 was above 7.00.
`CN(C)C1CCN(c2cccc3nc(CN(C)[C@H]4CCCc5cccnc54)c(C#N)n23)CC1` [Example 58, 5-[4-(dimethylamino)-1-piperidinyl]-2-({methyl[(8S)-5,6,7,8-tetrahydro-8-quinolinyl]amino}methyl)imidazo[1,2-a]pyridine-3-carbonitrile]: the pIC50 was above 7.00.
`CCCN(Cc1nc2cccc(N3CC[C@@H](N(C)C)C3)n2c1C#N)[C@H]1CCCc2cccnc21` [Example 46, 5-[(3R)-3-(Dimethylamino)-1-pyrrolidinyl]-2-({propyl[(8S)-5,6,7,8-tetrahydro-8-quinolinyl]amino}methyl)imidazo[1,2-a]pyridine-3-carbonitrile]: the pIC50 is above 7.00.
Take `CN1CCN(c2cccc3nc(CN(C)[C@H]4CCCc5cccnc54)c(C(N)=O)n23)CC1` [Example 18, 5-(4-Methyl-1-piperazinyl)-2-({methyl[(8S)-5,6,7,8-tetrahydro-8-quinolinyl]amino}methyl)imidazo[1,2-a]pyridine-3-carboxamide]: the pIC50 was above 7.00.
Consider `CCCN(Cc1nc2cccc(N3CCN(C)CC3)n2c1C#N)[C@H]1CCCc2cccnc21` [Example 25, 5-(4-Methyl-1-piperazinyl)-2-({propyl[(8S)-5,6,7,8-tetrahydro-8-quinolinyl]amino}methyl)imidazo[1,2-a]pyridine-3-carbonitrile], for which the pIC50 is above 7.00.
Take `CN1CCN(c2cccc3nc(CN(C)[C@H]4CCCc5cccnc54)c(Cl)n23)CC1` [Example 72, (8S)—N-{[3-Chloro-5-(4-methyl-1-piperazinyl)imidazo[1,2-a]pyridin-2-yl]methyl}-N-methyl-5,6,7,8-tetrahydro-8-quinolinamine]: the pIC50 is above 7.00.
Take `CCCN(Cc1nc2cccc(N3CCN(C)CC3)n2c1C(N)=O)[C@H]1CCCc2cccnc21` [Example 26, 5-(4-Methyl-1-piperazinyl)-2-({propyl[(8S)-5,6,7,8-tetrahydro-8-quinolinyl]amino}methyl)imidazo[1,2-a]pyridine-3-carboxamide]: the pIC50 is above 7.00.
The value for `CCCN(Cc1cn2c(N3CCN(C)CC3)ccc(F)c2n1)[C@H]1CCCc2cccnc21` [Example 90, (8S)—N-{[8-Fluoro-5-(4-methyl-1-piperazinyl)imidazo[1,2-a]pyridin-2-yl]methyl}-N-propyl-5,6,7,8-tetrahydro-8-quinolinamine] was above 7.00; that for `CC(C)N(Cc1nc2cccc(N3CC[C@@H](N(C)C)C3)n2c1C(N)=O)[C@H]1CCCc2cccnc21` [Example 51, 5-[(3R)-3-(Dimethylamino)-1-pyrrolidinyl]-2-({(1-methylethyl)[(8S)-5,6,7,8-tetrahydro-8-quinolinyl]amino}methyl)imidazo[1,2-a]pyridine-3-carboxamide] was above 7.00.
In the case of `CCCN(Cc1cn2c(N3CCC(N(C)C)CC3)cccc2n1)[C@H]1CCCc2cccnc21` [Example 64, (8S)—N-({5-[4-(dimethylamino)-1-piperidinyl]imidazo[1,2-a]pyridin-2-yl}methyl)-N-propyl-5,6,7,8-tetrahydro-8-quinolinamine], the pIC50 is above 7.00.
As to `CCN(Cc1nc2cccc(N3CCN(C)CC3)n2c1C#N)[C@H]1CCCc2cccnc21` [Example 21, 2-({Ethyl[(8S)-5,6,7,8-tetrahydro-8-quinolinyl]amino}methyl)-5-(4-methyl-1-piperazinyl)imidazo[1,2-a]pyridine-3-carbonitrile], the pIC50 is above 7.00.
`CCCN(Cc1nc2cccc(N3CCC(N(C)C)CC3)n2c1C(N)=O)[C@H]1CCCc2cccnc21` [Example 67, 5-[4-(dimethylamino)-1-piperidinyl]-2-({propyl[(8S)-5,6,7,8-tetrahydro-8-quinolinyl]amino}methyl)imidazo[1,2-a]pyridine-3-carboxamide]: the pIC50 was above 7.00.
Consider `CCCN(Cc1nc2cccc(N3CCN(C(C)C)CC3)n2c1Cl)[C@H]1CCCc2cccnc21` [Example 85, (8S)—N-({3-Chloro-5-[4-(1-methylethyl)-1-piperazinyl]imidazo[1,2-a]pyridin-2-yl}methyl)-N-propyl-5,6,7,8-tetrahydro-8-quinolinamine], for which the pIC50 is above 7.00.
`CN(C)C1CCN(c2cccc3nc(CN(C)[C@H]4CCCc5cccnc54)c(C(N)=O)n23)CC1` [Example 59]: the pIC50 was above 7.00.
Consider `CN(C)[C@@H]1CCN(c2cccc3nc(CN(C)[C@H]4CCCc5cccnc54)c(Cl)n23)C1` [Example 74, (8S)—N-({3-Chloro-5-[(3R)-3-(dimethylamino)-1-pyrrolidinyl]imidazo[1,2-a]pyridin-2-yl}methyl)-N-methyl-5,6,7,8-tetrahydro-8-quinolinamine], for which the pIC50 was above 7.00.
The value for `CCN(Cc1nc2cccc(N3CCC(N(C)C)CC3)n2c1C(N)=O)[C@H]1CCCc2cccnc21` [Example 63, 5-[4-(dimethylamino)-1-piperidinyl]-2-({ethyl[(8S)-5,6,7,8-tetrahydro-8-quinolinyl]amino}methyl)imidazo[1,2-a]pyridine-3-carboxamide] was above 7.00.
On to `CCCN(Cc1nc2cccc(N3CC[C@@H](N(C)C)C3)n2c1Cl)[C@H]1CCCc2cccnc21` [Example 86, (8S)—N-({3-Chloro-5-[(3R)-3-(dimethylamino)-1-pyrrolidinyl]imidazo[1,2-a]pyridin-2-yl}methyl)-N-propyl-5,6,7,8-tetrahydro-8-quinolinamine], for which the pIC50 is above 7.00.
For `CC(C)N1CCN(c2cccc3nc(CN(C)[C@H]4CCCc5cccnc54)c(Cl)n23)CC1` [Example 80, (8S)—N-({3-Chloro-5-[4-(1-methylethyl)-1-piperazinyl]imidazo[1,2-a]pyridin-2-yl}methyl)-N-methyl-5,6,7,8-tetrahydro-8-quinolinamine], the pIC50 was above 7.00.
For the compound `CCCN(Cc1nc2cccc(N3CCC(N(C)C)CC3)n2c1Cl)[C@H]1CCCc2cccnc21` [Example 87, (8S)—N-({3-Chloro-5-[4-(dimethylamino)-1-piperidinyl]imidazo[1,2-a]pyridin-2-yl}methyl)-N-propyl-5,6,7,8-tetrahydro-8-quinolinamine], the pIC50 is above 7.00.
As to `CCCN(Cc1nc2cccc(N3CCN[C@@H](C)C3)n2c1Cl)[C@H]1CCCc2cccnc21` [Example 88, (8S)—N-({3-Chloro-5-[(3S)-3-methyl-1-piperazinyl]imidazo[1,2-a]pyridin-2-yl}methyl)-N-propyl-5,6,7,8-tetrahydro-8-quinolinamine], the pIC50 is above 7.00.
